Results taken from PubChem BioAssay AID504868 (The Scripps Research Institute Molecular Screening Center, 2011).
Where “and” joins values, the source holds several entries; their conditions need not be identical. Identical values can stand only once. Calls of active or inactive are those of the source. How the calls were made is not given here.

Target: Neuropeptides B/W receptor type 1 (Homo sapiens) (UniProt P48145)
Experiment: GPR7 antagonist potency, late-stage follow-up, cell-based, fluorescence, dose response, set 2 (AID 504868)
Conditions: GPR7-expressing cells, fluorescence antagonist readout

Row | IC50 (run 1) | IC50 (run 2) | IC50 (run 3) | Compound
1 | 4.19 µM | 2.41 µM | – | COc1ccc(Oc2c(C#N)cnn(-c3ccc(C(C)C)cc3)c2=O)cc1
2 | 6.22 µM | 4 µM | – | COc1ccc(Oc2c(C3CC3)cnn(-c3ccc(C)cc3)c2=O)cc1
3 | 2.73 µM | 1.88 µM | – | COC(=O)c1cnn(-c2ccc(C(C)C)cc2)c(=O)c1Oc1ccc(OC)cc1
4 | 0.878 µM | 0.518 µM | 0.836 µM | Cc1ccc(-n2ncc(Cl)c(Oc3ccc(OC(F)(F)F)cc3)c2=O)cc1
5 | 2.16 µM | 1.05 µM | 1.8 µM | Cc1ccc(-n2ncc(Cl)c(Oc3ccc(C(F)(F)F)cc3)c2=O)cc1
6 | 2.26 µM | 0.844 µM | 1.71 µM | Cc1ccc(-n2ncc(Cl)c(Oc3ccc(CO)cc3)c2=O)cc1
7 | 7.48 µM | 7.22 µM | – | COc1ccc(Oc2c(C)cnn(-c3ccc(C(C)C)cc3)c2=O)cc1
8 | > 20 µM (inactive) | > 20 µM (inactive) | > 20 µM (inactive) | COc1ccc(Oc2c(-c3ccccc3)cnn(-c3ccc(C)cc3)c2=O)cc1
9 | 6.2 µM | 4.41 µM | – | COc1ccc(Oc2c(C=O)cnn(-c3ccc(C(C)C)cc3)c2=O)cc1
10 | 1.01 µM and 2.23 µM | 0.741 µM and 1.42 µM | 1.35 µM | COc1ccc(Oc2c(Cl)cnn(-c3ccc(C)cc3)c2=O)cc1
